Values after ≈ are worked out from the molar mass of the structure shown. Like-named read-outs stand apart in the source and are kept apart here.
Experiments:
Type in all cases: cell-based
[1] = system: Aspergillus niger (ATCC 9642); assay: Microtiter plate MIC test, A. niger; conditions: for MIC: Aspergillus niger, ATCC9642, 168 h, read-out: MIC alone
Method: (§1) Sample stock solution of Penflufen was prepared in DMSO at 20000 ppm (active ingredient).
(§2) Microorganisms grown on agar slants were harvested using standard microbiological techniques. The numbers of mold spores were determined by counted using a hemocytometer, and then inoculum was prepared in the media shown in Table 2. Then, 190 ul of inoculum was added into each well containing 10 ul of the serially diluted sample solution.

[2] = system: Aureobasidium pullulans (ATCC 9348); assay: Microtiter plate MIC test, A. pullulans; conditions: for MIC: Aureobasidium pullulans, ATCC9348, 168 h, read-out: MIC alone
Method: as §1, §2

[3] = system: Trichoderma virens (ATCC 9645); assay: Microtiter plate MIC test, T. virens; conditions: for MIC: Trichoderma virens, ATCC9645, 168 h, read-out: MIC alone
Method: as §1, §2

P. pinophilum = assay: Microtiter plate MIC test, P. pinophilum; conditions: for MIC: 168 h, read-out: MIC alone
Method: as §1, §2

[4] = system: Aspergillus brasiliensis (ATCC 16404); assay: Microtiter plate minimum inhibitory concentration (MIC) test, A. brasiliensis; conditions: for MIC: Aspergillus brasiliensis, ATCC16404, 168 h, read-out: MIC alone
Method: as §1, §2

Coniophora puteana = assay: Agar dilution MIC against decay fungus Coniophora puteana; conditions: for MIC: Coniophora puteana, 216 h, read-out: Coniophora puteana MIC (ppm)
Method: (§3) Total 17 samples, including Penflufen, 8 Penflufen-potentiator blends and 8 potentiators were submitted for evaluation.
(§4) Decay fungi Antrodia sinuosa and Coniophora puteana were obtained from GTS microbiology lab fungal collection and cultured on Potato Dextrose Agar at 28° C.
(§5) The samples were diluted to test at a starting concentration of 1,000 ppm active based on the concentration of Penflufen in the samples. Samples were serially diluted into the molten Potato Dextrose Agar before the agar was solidified. The agar plugs with active fungal hyphae growth were inoculated onto the prepared agar surface.
(§6) All concentrations reported are in ppm.

Antrodia sinuosa = assay: Agar dilution MIC against decay fungus Antrodia sinuosa; conditions: for MIC: Adustoporia sinuosa, 216 h, read-out: Antrodia sinuosa MIC (ppm)
Method: as §3, §4, §5, §6

[5] = substance alone, A. niger, 28° C., 7 days, ppm
[6] = substance alone, A. pullulans, 28° C., 7 days, ppm
[7] = substance alone, T. virens, 28° C., 7 days, ppm
[8] = substance alone, P. pinophilum, 28° C., 7 days, ppm
[9] = substance alone, A. brasiliensis, 28° C., 7 days, ppm
[10] = active or potentiator alone, Potato Dextrose Agar, 28° C., 9 days, complete inhibition of hyphae growth

Cc1ccc(S(N)(=O)=O)cc1
MIC alone [1, 5]: 5000 ppm
MIC alone [2, 6]: 5000 ppm
MIC alone [3, 7]: 5000 ppm
MIC alone (P. pinophilum; [8]): 5000 ppm
MIC alone [4, 9]: 5000 ppm

CCCCCCCCCCCCN(C)C [Barlene 12, N,N-Dimethyl-N-dodecylamine]
MIC [1]: 250 µg/mL (≈ 1170 µM)
MIC [2]: 7.81 µg/mL (≈ 36.6 µM)
MIC [3]: 7.81 µg/mL (≈ 36.6 µM)
MIC (Coniophora puteana): 500 µg/mL
MIC (P. pinophilum): 7.81 µg/mL (≈ 36.6 µM)
MIC (Antrodia sinuosa): 250 µg/mL
MIC [4]: 31.2 µg/mL (≈ 146 µM)

CC(=O)c1c([O-])cc(C)oc1=O.CC(=O)c1c([O-])cc(C)oc1=O.[Zn+2] [DHA Zn, Dehydroacetic acid zinc salt]
MIC alone [1, 5]: 500 ppm
MIC alone [2, 6]: 1000 ppm
MIC alone [3, 7]: 250 ppm
Coniophora puteana MIC (ppm) (Coniophora puteana; [10]): 125 ppm
MIC alone (P. pinophilum; [8]): >1000 ppm
Antrodia sinuosa MIC (ppm) (Antrodia sinuosa; [10]): 125 ppm
MIC alone [4, 9]: 500 ppm

CCCCCCCC/C=C\CCCCCCCCN [Oleylamine, (Z)-Octa-9-decenylamine]
MIC alone [1, 5]: 1.25 ppm
MIC alone [2, 6]: 0.31 ppm
MIC alone [3, 7]: 0.625 ppm
Coniophora puteana MIC (ppm) (Coniophora puteana; [10]): 50.0 ppm
MIC alone (P. pinophilum; [8]): 1.25 ppm
Antrodia sinuosa MIC (ppm) (Antrodia sinuosa; [10]): 50.0 ppm
MIC alone [4, 9]: 2.5 ppm

Cc1nn(C)c(F)c1C(=O)Nc1ccccc1C(C)CC(C)C (centres unmarked) [Penflufen, N-[2-(1,3-dimethylbutyl)phenyl]-5-fluoro-1,3-dimethyl-1H-pyrazole-4-carboxamide, reference compound]
MIC [1, 5]: 7.81 µg/mL (≈ 24.6 µM)
MIC [2, 6]: 500 µg/mL (≈ 1580 µM)
MIC [3, 7]: > 1000 µg/mL
MIC (Coniophora puteana; [10]): 125 µg/mL
MIC (P. pinophilum; [8]): > 1000 µg/mL
MIC (Antrodia sinuosa; [10]): 62.5 µg/mL
MIC [4, 9]: 15.7 µg/mL (≈ 49.3 µM)

O=C([O-])c1ccccc1.[Na+] [Sodium benzoate]
Coniophora puteana MIC (ppm) (Coniophora puteana; [10]): 313 ppm
Antrodia sinuosa MIC (ppm) (Antrodia sinuosa; [10]): 1250 ppm

Isononoic Acid
MIC alone [1, 5]: 625 ppm
MIC alone [2, 6]: 625 ppm
MIC alone [3, 7]: 625 ppm
Coniophora puteana MIC (ppm) (Coniophora puteana; [10]): 156 ppm
MIC alone (P. pinophilum; [8]): 625 ppm
Antrodia sinuosa MIC (ppm) (Antrodia sinuosa; [10]): 313 ppm
MIC alone [4, 9]: 1250 ppm

Tris(2-hydroxyethyl)-N-tallowalkyl-1,3-diaminopropane [Ethoduomeen]
MIC alone [1, 5]: <4.88 ppm
MIC alone [2, 6]: 9.76 ppm
MIC alone [3, 7]: <4.88 ppm
Coniophora puteana MIC (ppm) (Coniophora puteana; [10]): 2500 ppm
MIC alone (P. pinophilum; [8]): <4.88 ppm
Antrodia sinuosa MIC (ppm) (Antrodia sinuosa; [10]): 625 ppm
MIC alone [4, 9]: <4.88 ppm

cocoamine oxide [Barlox 12]
MIC alone [1, 5]: 15.62 ppm
MIC alone [2, 6]: 15.62 ppm
MIC alone [3, 7]: 125 ppm
Coniophora puteana MIC (ppm) (Coniophora puteana; [10]): 250 ppm
MIC alone (P. pinophilum; [8]): 62.5 ppm
Antrodia sinuosa MIC (ppm) (Antrodia sinuosa; [10]): 62.5 ppm
MIC alone [4, 9]: 62.5 ppm
